Experimental data reported in article PMC7614683, “A small molecule PI3Kα activator for cardioprotection and neuroregeneration” (Nature, 2023).
Several values for one entry are separate records, joined by “and”; a condition that tells them apart may be missing. Identical values can stand only once.

Columns and labels:
[1] = tested on: MEFs; experiment: Phosphoinositide quantification by mass spectrometry, MEFs; type: cell-based, mouse
Procedure: A549 cells (5.10^5) or wild-type MEFs (3.10^5) were plated in complete media onto 3.5 cm dishes or 60 mm dishes respectively for 24 h, prior to FCS-free starvation media for 16 h. MEFs, in addition, were supplemented with arachidonic acid in the FCS-free starvation media as previously described. […] Reactions were terminated in 600 μl ice-cold 1 M HCl and cells scraped and resuspended, then divided into two equal samples in eppendorfs. […] The data are shown as response ratios, calculated by normalizing the multiple reaction monitoring (MRM)-targeted lipid integrated response area to that of a known amount of relevant internal standard. To account for any cell input variability, PIP3 response ratios were normalized to C38:4-PI response ratios; while PI(3,4)P2 response ratios were normalised to PI(4,5)P2 response ratios. Data shown are mean ±SD for n ≥3, except for non-DMSO control in MEF PIP3 measurements where n=1.

[2] = tested on: isolated rat hearts; experiment: Langendorff ex vivo perfused rat heart model of ischaemia reperfusion injury; conditions: 1938 5 μM or insulin 1 μM; Fig 5d, single hearts
Procedure: The Langendorff ex vivo perfused rat heart was used as an experimental model of IRI[79]. The animal experiments were conducted within the terms of the UK Animals (Scientific Procedures) Act 1986, under Project Licence number PPL 70/8556 (Protection of the Ischaemic and Reperfused Myocardium). All procedures conform to the guidelines from Directive 2010/63/EU of the European Parliament on the protection of animals used for scientific purposes. Male Sprague–Dawley rats were bred at a central animal unit in University College London and used at a weight of 250–350 g, and randomly assigned to experimental groups. Rats were anaesthetised by intraperitoneal injection of sodium pentobarbitone (60 mg/kg) (Animalcare, York, UK). […] Analysis of infarct size (IS) as a proportion of area at risk (AAR) was calculated via planimetry using imageJ software (version 1.45, National Institutes of Health, USA).
Alternatively, after 15 min reperfusion, perfusion was stopped and hearts were freeze-clamped in liquid nitrogen and frozen at -80°C. […] Protein content was determined by bicinchoninic acid (BCA) assay (Sigma-Aldrich, Gillingham, UK). […] The next day, membranes were probed with IRDye fluorescence-tagged secondary antibodies (#926-32211 and #926-68020; LI-COR Biosciences, Ltd. UK) and imaged and quantified using the Odyssey imaging system (Image Studio Lite Ver 5.2; LI-COR Biosciences, Cambridge, UK).

Compound	time for which maximal PIP3 level is maintained [1]	time of maximal PIP3 level [1] [min]	time to increased PIP3 levels [1] [s]	concentration at which PIP3 induction plateaus ([1]; 2 min)	PIP3 levels compared with insulin and PDGF ([1]; 2 min time point)	EC50 ([1]; Mus musculus, 2 min, read-out: EC50 of PIP3 induction) [µM]	Western blot pAkt in langendorff [2]
CCN1CCN(c2ccc(Nc3cc(Nc4cccc5c4N(C(C)=O)CC5)ccn3)cc2)CC1 [Compound 1938]	up to 40 min	5	≤ 30	around 10 μM	comparable to those induced by insulin	~5	–
insulin: insulin, canonical activator of PI3Kα, used as positive control	–	–	–	–	–	–	3.259 and 3.657
